Consider 13 compounds from patent US9890185B2, “Urea derivatives useful as kinase inhibitors” (Respivert Limited, priority 2013, dated 2018).

For one assay, the target named is c-Src (Homo sapiens (Human), UniProt P12931). As to the kind of experiment: c-Src enzyme inhibition (FRET, Z-LYTE). The assay is classed as biochemical. Here is the method: (§1) The enzyme inhibitory activities of compounds disclosed herein are determined by FRET using synthetic peptides labelled with both donor and acceptor fluorophores (Z-LYTE, Invitrogen Ltd., Paisley, UK).
(§2) The inhibitory activities of compounds of the invention against c-Src and Syk enzymes (Invitrogen), are evaluated in a similar fashion to that described hereinabove. The relevant enzyme (3000 ng/mL or 2000 ng/mL respectively, 2.5 μL) is incubated with the test compound (either 4 μg/mL, 0.4 μg/mL, 0.04 μg/mL, or 0.004 μg/mL, 2.5 μL each) for 2 hr at RT. The FRET peptides (8 μM, 2.5 μL), and appropriate ATP solutions (2.5 μL, 800 μM for c-Src, and 60 μM ATP for Syk) are then added to the enzymes/compound mixtures and incubated for 1 hr. Development reagent (protease, 5 μL) is added for 1 hr prior to detection in a fluorescence microplate reader (Varioskan® Flash, ThermoFisher Scientific).
(§3) In all cases, the site-specific protease cleaves non-phosphorylated peptide only and eliminates the FRET signal. Phosphorylation levels of each reaction are calculated using the ratio of coumarin emission (donor) over fluorescein emission (acceptor), for which high ratios indicate high phosphorylation and low ratios indicate low phosphorylation levels. The percentage inhibition of each reaction is calculated relative to non-inhibited control and the 50% inhibitory concentration (IC50 value) is then calculated from the concentration-response curve.

In the next assay the test system is PBMCs. Briefly: LPS-induced IL-8 release in PBMC cells (assay b). It is filed as cell-based, human. The conditions noted are these: LPS-stimulated PBMCs, read-out: IC50 Values for Inhibition of Cytokine Release, PBMCs IL-8. In a few lines: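 Cytokines (TNFα, IL-8) in supernatants were quantified by sandwich ELISA after a 24 h challenge with 1 ng/mL E. coli LPS at 37° C, 5% CO2. Healthy-donor PBMCs had been exposed to compound for 2 h beforehand. IC50 values were fitted from the concentration-response curves.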

The target in a further assay is GSK 3α (Homo sapiens (Human), UniProt P49840). As to the kind of experiment: GSK 3α enzyme inhibition (FRET, Z-LYTE, Method 2). The conditions noted are these: read-out: IC50 Values for Enzyme Inhibition, GSK3α. The assay is classed as biochemical. The gist of the method: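 Recombinant human GSK3α was preincubated with compound (stocks 4, 0.4, 0.04 or 0.004 μg/mL) at RT, 2 hr for Method 1 and 105 min for Method 2. FRET peptide (8 μM stock) and ATP (40 μM stock) were added for 1 hr, then protease development for 1 hr. IC50 was taken from concentration–response curves.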

Another assay has as its target Syk (Homo sapiens (Human), UniProt P43405). Briefly: Syk enzyme inhibition (FRET, Z-LYTE). The assay is classed as biochemical. Here is the method: as §1, §2, §3
Another assay relates to d-U937 cells. Briefly: Accumulation of β catenin in d-U937 cells (assay m). The assay is classed as cell-based, human. The conditions noted are these: percentage relative to Reference Compound at 1 μg/mL. As to the method:
U937 cells, a human monocytic cell line, are differentiated into macrophage-type cells by incubation with PMA; (100 ng/mL) for between 48 to 72 hr. The cells are then incubated with either final concentrations of test compound or vehicle for 18 hr. The induction of β-catenin by the test compounds is stopped by replacing the media with 4% formaldehyde solution. Endogenous peroxide activity is neutralised by incubating with quenching buffer (100 μL, 0.1% sodium azide, 1% H2O2 in PBS with 0.05% Tween-20) for 20 min. The cells are washed with washing buffer (200 μL; PBS containing 0.05% Tween-20) and incubated with blocking solution (200 μL; 5% milk in PBS) for 1 hr, re-washed with washing buffer (200 μL) and then incubated overnight with anti-β-catenin antibody solution (50 μL) in 1% BSA/PBS (BD, Oxford, UK).
After washing with washing buffer (3×200 μL; PBS containing 0.05% Tween-20), cells are incubated with an HRP-conjugated secondary antibody solution (100 μL) in 1% BSA/PBS (Dako, Cambridge, UK) and the resultant signal is determined colourimetrically (OD: 450 nm with a reference wavelength of 655 nm) using TMB substrate (50 μL; R&D Systems, Abingdon, UK). This reaction is stopped by addition of 1N H2SO4 solution (50 μL). Cells are then washed with washing buffer and 2% crystal violet solution (50 μL) is applied for 30 min. After washing with washing buffer (3×200 μL), 1% SDS (100 μL) is added to each well and the plates are shaken lightly for 1 hr prior to measuring the absorbance at 595 nm (Varioskan® Flash, Thermo-Fisher Scientific).
The measured OD450-655 readings are corrected for cell number by dividing the OD450-655 by the OD595 readings.

The target of assay [1] is p38 MAPKα isoform (MAPK14) (Homo sapiens (Human), UniProt Q16539). Briefly: p38 MAPKα enzyme inhibition (FRET, Z-LYTE, Method 2). The assay is classed as biochemical. Here is the method: as §1
The following two assay variants can be used for determination of p38 MAPKα inhibition.
The inhibitory activities of test compounds against the p38 MAPKα isoform (MAPK14: Invitrogen), are evaluated indirectly by determining the level of activation/phosphorylation of the down-stream molecule, MAPKAP-K2. The p38 MAPKα protein (80 ng/mL, 2.5 μL) is mixed with the test compound (2.5 μL of either 4 μg/mL, 0.4 μg/mL, 0.04 μg/mL or 0.004 μg/mL) for 2 hr at RT. […] The mixture is incubated for 1 hr at RT. Development reagent (protease, 5 μL) is added for 1 hr prior to detection in a fluorescence microplate reader (Varioskan® Flash, ThermoFisher Scientific).
This method follows the same steps as Method 1 above, but utilises a higher concentration of the p38 MAPKα protein (2.5 μL of 200 ng/mL protein instead of 2.5 μL of 80 ng/mL protein) for mixing with the test compound.
as §3

Where two headings read alike, the source gives them in different places.

Chain of GSK 3α (P49840 whole entry): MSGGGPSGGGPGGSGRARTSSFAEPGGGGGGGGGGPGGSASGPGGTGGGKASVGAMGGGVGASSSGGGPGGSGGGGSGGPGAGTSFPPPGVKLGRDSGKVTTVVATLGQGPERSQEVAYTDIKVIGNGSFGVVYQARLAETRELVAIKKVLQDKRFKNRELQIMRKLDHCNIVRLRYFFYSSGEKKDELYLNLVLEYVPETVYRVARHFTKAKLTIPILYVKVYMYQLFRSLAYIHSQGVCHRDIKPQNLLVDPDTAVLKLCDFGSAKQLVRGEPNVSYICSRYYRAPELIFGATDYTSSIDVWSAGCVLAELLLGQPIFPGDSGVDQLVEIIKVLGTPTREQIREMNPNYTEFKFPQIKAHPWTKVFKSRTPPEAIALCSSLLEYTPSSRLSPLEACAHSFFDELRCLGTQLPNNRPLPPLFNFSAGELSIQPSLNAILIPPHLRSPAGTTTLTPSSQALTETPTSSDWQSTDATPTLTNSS
Chain of c-Src (P12931 whole entry, looked up): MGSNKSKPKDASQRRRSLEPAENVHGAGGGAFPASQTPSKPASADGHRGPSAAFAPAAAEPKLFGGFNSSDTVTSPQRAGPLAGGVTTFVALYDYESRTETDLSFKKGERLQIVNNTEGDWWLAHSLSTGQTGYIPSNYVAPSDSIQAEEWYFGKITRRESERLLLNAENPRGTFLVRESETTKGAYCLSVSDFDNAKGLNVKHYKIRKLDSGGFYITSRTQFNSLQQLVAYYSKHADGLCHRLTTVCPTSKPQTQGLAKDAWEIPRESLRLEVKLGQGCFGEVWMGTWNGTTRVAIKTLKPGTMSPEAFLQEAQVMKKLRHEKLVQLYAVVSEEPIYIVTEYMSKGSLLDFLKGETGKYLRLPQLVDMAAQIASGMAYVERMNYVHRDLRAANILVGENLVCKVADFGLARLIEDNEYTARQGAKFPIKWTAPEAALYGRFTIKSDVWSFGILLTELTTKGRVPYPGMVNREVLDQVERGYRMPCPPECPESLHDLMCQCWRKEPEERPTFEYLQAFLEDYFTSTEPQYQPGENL
Chain of p38 MAPKα isoform (MAPK14) (Q16539 whole entry, canonical isoform): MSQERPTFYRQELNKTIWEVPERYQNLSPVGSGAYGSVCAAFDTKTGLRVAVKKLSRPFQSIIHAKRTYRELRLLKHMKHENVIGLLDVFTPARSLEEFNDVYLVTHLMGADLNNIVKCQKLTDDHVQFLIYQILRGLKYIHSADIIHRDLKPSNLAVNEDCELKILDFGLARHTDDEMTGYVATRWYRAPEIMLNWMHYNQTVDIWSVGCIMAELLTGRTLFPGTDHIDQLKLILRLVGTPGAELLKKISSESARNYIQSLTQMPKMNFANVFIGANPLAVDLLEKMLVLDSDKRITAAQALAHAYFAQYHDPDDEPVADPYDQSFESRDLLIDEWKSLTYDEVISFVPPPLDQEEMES

Regarding `COc1c(CNS(C)(=O)=O)cc(C(C)(C)C)cc1NC(=O)Nc1ccc(Oc2ccnc(Nc3ccccc3)c2)c2ccccc12` [15(aq), N-(5-(tert-butyl)-2-methoxy-3-(3-(4-((2-(phenylamino)pyridin-4-yl)oxy)naphthalen-1-yl)ureido)benzyl)methanesulfonamide], the IC50 is 160 nM against c-Src; 4.4 nM in the assay on PBMCs (Homo sapiens, PBMC); 3290 nM at GSK 3α; 1520 nM on Syk.

For `COc1c(NC(=O)Nc2ccc(Oc3ccnc(Nc4ccccc4)n3)c3ccccc23)cc(C(C)(C)C)cc1OCP(C)(C)=O` [15(d), 1-(5-(tert-butyl)-3-((dimethylphosphoryl)methoxy)-2-methoxyphenyl)-3-(4-((2-(phenylamino)pyrimidin-4-yl)oxy)naphthalen-1-yl)urea], the IC50 came out at 61 nM against c-Src; 6.2 nM with PBMCs (Homo sapiens, PBMC); 919 nM on GSK 3α; 477 nM against Syk. Besides, the “% β-catenin induction” value in the assay with d-U937 cells (test compound 1 μg/mL) amounted to 11.0%; in the assay with d-U937 cells (test compound 5 μg/mL) it was 92.0%; in the assay on d-U937 cells (test compound 10 μg/mL), 31.0%.

For `COc1cccc(Nc2nccc(Oc3ccc(NC(=O)Nc4cc(C(C)(C)C)cc(P(C)(C)=O)c4OC)c4ccccc34)n2)c1` [15(g), 1-(5-(tert-butyl)-3-(dimethylphosphoryl)-2-methoxyphenyl)-3-(4-((2-((3-methoxy-phenyl)amino)pyrimidin-4-yl)oxy)naphthalen-1-yl)urea], the “% β-catenin induction” value in the assay with d-U937 cells (test compound 1 μg/mL) was 15.0%; with d-U937 cells (test compound 5 μg/mL), 94.0%; in the assay with d-U937 cells (test compound 10 μg/mL) it was 94.0%. Moreover, the IC50 turned out to be 1.9 nM in the assay on PBMCs and 757 nM on GSK 3α.

For the compound `COc1c(NC(=O)Nc2ccc(Oc3ccnc(Nc4ccccc4)c3)c3ccccc23)cc(C(C)(C)C)cc1S(C)(=O)=O` [15(m), 1-(5-(tert-butyl)-2-methoxy-3-(methylsulfonyl)phenyl)-3-(4-((2-(phenylamino)pyridin-4-yl)oxy)naphthalen-1-yl)urea], the figures for the “% β-catenin induction” value with d-U937 cells (test compound 1 μg/mL), in the assay with d-U937 cells (test compound 5 μg/mL) and in the assay on d-U937 cells (test compound 10 μg/mL) were −3.0%, 5.0% and 5.0%, respectively. For the same compound, the IC50 with PBMCs (Homo sapiens, PBMC) was 16 nM; on GSK 3α, over 16400 nM; in assay [1] it was 747 nM.

For the compound `COc1cc(Nc2cc(Oc3ccc(NC(=O)Nc4cc(C(C)(C)C)cc(CC(N)=O)c4OC)c4ccccc34)ccn2)cc(C(=O)NCC(CO)(CO)CO)c1` [38(al), 3-((4-((4-(3-(3-(2-Amino-2-oxoethyl)-5-(tert-butyl)-2-methoxyphenyl)ureido)naphthalen-1-yl)oxy)pyridin-2-yl)amino)-N-(3-hydroxy-2,2-bis(hydroxymethyl)propyl)-5-methoxybenzamide], the IC50 with PBMCs (Homo sapiens, PBMC) was found to be 7.2 nM; on GSK 3α, 1970 nM; in assay [1], 44 nM.

`COc1cc(Nc2cc(Oc3ccc(NC(=O)Nc4cc(C(C)(C)C)cc([S+](C)[O-])c4OC)c4ccccc34)ccn2)ccc1C(=O)O` (stereo not drawn) [79(g), 4-((4-((4-(3-(5-(tert-Butyl)-2-methoxy-3-(methylsulfinyl)phenyl)ureido)naphthalen-1-yl)oxy)pyridin-2-yl)amino)-2-methoxybenzoic acid]: the IC50 at c-Src worked out at 17 nM; in the assay with PBMCs (Homo sapiens, PBMC) it was 5.3 nM; against Syk, 5 nM.

Take `COc1c(NC(=O)Nc2ccc(Oc3ccnc(NC4CCOCC4)n3)c3ccccc23)cc(C(C)(C)C)cc1P(C)(C)=O` [Example 31, 1-(5-(tert-Butyl)-3-(dimethylphosphoryl)-2-methoxyphenyl)-3-(4-((2-((tetrahydro-2H-pyran-4-yl)amino)pyrimidin-4-yl)oxy)naphthalen-1-yl)urea]: the IC50 was 2.6 nM with PBMCs (Homo sapiens, PBMC) and 186 nM on GSK 3α.

Regarding `CC(C)(C)c1cc(NC(=O)Nc2ccc(Oc3ccnc(Nc4ccccc4)c3)c3ccccc23)c(O)c(P(C)(C)=O)c1` [Example 39, 1-(5-(tert-Butyl)-3-(dimethylphosphoryl)-2-hydroxyphenyl)-3-(4-((2-(phenylamino)pyridin-4-yl)oxy)naphthalen-1-yl)urea], the IC50 in the assay on PBMCs (Homo sapiens, PBMC) was 31.4 nM; at GSK 3α, over 12600 nM.

Consider `COc1cc(Nc2cc(Oc3ccc(NC(=O)Nc4cc(C(C)(C)C)cc(OCC(CO)(CO)CO)c4OC)c4ccccc34)ccn2)cc(C(N)=O)c1` [Example 67, 3-((4-((4-(3-(5-(tert-Butyl)-3-(3-hydroxy-2,2-bis(hydroxymethyl)propoxy)-2-methoxyphenyl)ureido)naphthalen-1-yl)oxy)pyridin-24)amino)-5-methoxybenzamide], for which the IC50 amounted to 5.6 nM in the assay on PBMCs (Homo sapiens, PBMC); 4260 nM at GSK 3α; 284 nM in assay [1].

Turning to `COc1c(NC(=O)Nc2ccc(Oc3ccnc(Nc4cc(C)c5[nH]ncc5c4)n3)c3ccccc23)cc(C(C)(C)C)cc1[S+](C)[O-]` (stereo not drawn) [Example 74, 1-(5-(tert-Butyl)-2-methoxy-3-(methylsulfinyl)phenyl)-3-(4-((2-((7-methyl-1H-indazol-5-yl)amino)pyrimidin-4-yl)oxy)naphthalen-1-yl)urea], the IC50 in the assay with PBMCs (Homo sapiens, PBMC) amounted to 1.6 nM; at GSK 3α, 1230 nM.

With `COc1cc(Nc2cc(Oc3ccc(NC(=O)Nc4cc(C(C)(C)C)cc(P(C)(C)=O)c4OC)c4ccccc34)ccn2)ccc1C(=O)O` [Example 76, 4-((4-((4-(3-(5-(tert-Butyl)-3-(dimethylphosphoryl)-2-methoxyphenyl)ureido)naphthalen-1-yl)oxy)pyridin-2-yl)amino)-2-methoxybenzoic acid], the IC50 came out at 41.5 nM in the assay on PBMCs (Homo sapiens, PBMC) and 70 nM on GSK 3α.

For the compound `CNC(=O)c1cc(CN2CCN(C)CC2)cc(Nc2cc(Oc3ccc(NC(=O)Nc4cc(C(C)(C)C)cc(P(C)(C)=O)c4OC)c4ccccc34)ccn2)c1` [Example 78, 3-((4-((4-(3-(5-(tert-Butyl)-3-(dimethylphosphoryl)-2-methoxyphenyl)ureido)naphthalen-1-yl)oxy)pyridin-2-yl)amino)-N-methyl-5-((4-methylpiperazin-1-yl)methyl)benzamide], the IC50 is 23 nM with PBMCs (Homo sapiens, PBMC) and 773 nM at GSK 3α.

As to `COCC(=O)Nc1cc(Oc2ccc(NC(=O)Nc3cc(C(C)(C)C)nn3-c3ccc(C)cc3)c3ccccc23)ccn1` [Reference Compound, N-(4-(4-(3-(3-tert-butyl-1-p-tolyl-1H-pyrazol-5-yl)ureido)naphthalen-1-yloxy)pyridin-2-yl)-2-methoxyacetamide, reference compound], the “% β-catenin induction” value in the assay with d-U937 cells (test compound 1 μg/mL) amounted to 100%.

Usually IC50 stands for the midpoint of a concentration-inhibition curve.
